Here are results for 57 molecules from US6346532B1, “Amide derivatives or salts thereof” (Yamanouchi Pharmaceutical Co., Ltd., priority 1997, dated 2002).

Where a name gives a salt, the structure may show the parent alone.

As usually defined, the melting point is the temperature, or range, at which the solid turns liquid. In turn, `Cl.O=C(Cc1n[nH]c(S)n1)Nc1ccc(CCNC[C@H](O)c2ccccc2)cc1` gave a melting point of 210 to 213 °C.

For the molecule `Cl.O=C(Cc1ccccn1)Nc1ccc(CCNCC(O)c2ccccc2F)cc1` (stereo not drawn), the melting point lay within 194 to 196 °C.

In the case of `Cl.O=C(Cc1ccccn1)Nc1ccc(CCNCC(O)c2cccc(F)c2)cc1` (stereo not drawn), the melting point is 214 to 215 °C.

`Cl.O=C(Cc1ccccn1)Nc1ccc(CCNCC(O)c2ccc(F)cc2)cc1` (stereo not drawn) returned a melting point of 223 to 225 °C.

Consider `Cl.O=C(Cc1ccc2ccccc2n1)Nc1ccc(CCNC[C@H](O)c2ccccc2)cc1`, for which the melting point was 234 to 235 °C.

As to `Cl.O=C(Cc1ccccn1)Nc1ccc(CCNC[C@H](O)c2cccc(Cl)c2)cc1`, the melting point lay within 221 to 222 °C.

Consider `Cl.Cl.Nc1nc(C(=O)C(=O)Nc2ccc(CCNC[C@H](O)c3ccccc3)cc2)cs1`, for which the melting point is 205 to 210 °C (dec.).

`Cl.O=C(Cc1ccccn1)Nc1ccc(OCCNC[C@H](O)c2ccccc2)cc1` yielded a melting point of 225 to 226 °C.

`Cl.Cl.O=C(Nc1ccc(CCNC[C@H](O)c2ccccc2)cc1)Nc1ccccn1` showed a melting point of 132 to 133 °C.

In turn, `Cl.Cl.Nc1nc(CC(=O)Nc2ccc(CCNC[C@H](O)c3ccccc3)cc2)ns1` yielded a melting point of 244 to 246 °C.

`CCOC(=O)Nc1nc(CC(=O)Nc2ccc(CCNC[C@H](O)c3ccccc3)cc2)ns1.Cl` registered a melting point of 205 to 208 °C.

On to `Cl.O=C(Cc1cccc(Cl)n1)Nc1ccc(CCNC[C@H](O)c2ccccc2)cc1`, for which the melting point lay in the range of 248 to 251 °C.

The molecule `Cl.Cl.O=C(Cc1cn(Cc2ccccc2)cn1)Nc1ccc(CCNC[C@H](O)c2ccccc2)cc1` came in with a melting point of 139 to 141 °C.

On to `Cl.Cl.O=C(Cc1cn(Cc2ccccc2Cl)cn1)Nc1ccc(CCNC[C@H](O)c2ccccc2)cc1`, for which the melting point lay within 140 to 143 °C.

The molecule `Cl.Cl.O=C(Nc1ccc(CCNC[C@H](O)c2ccccc2)cc1)c1cccnc1` came in with a melting point of 263 to 265 °C.

Consider `Cl.Cl.O=C(Cc1cn(Cc2cccc(Cl)c2)cn1)Nc1ccc(CCNC[C@H](O)c2ccccc2)cc1`, for which the melting point is 140 to 143 °C.

The molecule `Cl.Cl.O=C(Cc1nccn1Cc1ccc(F)cc1)Nc1ccc(CCNC[C@H](O)c2ccccc2)cc1` had a melting point of 230 to 235 °C.

With `Cl.Cl.O=C(Cc1nccn1Cc1ccc(Br)cc1)Nc1ccc(CCNC[C@H](O)c2ccccc2)cc1`, the melting point is 221 to 223 °C.

For `Cl.Cl.O=C(Cc1nccn1Cc1ccc(I)cc1)Nc1ccc(CCNC[C@H](O)c2ccccc2)cc1`, the melting point lay in the range of 222 to 225 °C.

Molecule `Cl.Cl.O=C(Cc1nccn1Cc1ccc(C(F)(F)F)cc1)Nc1ccc(CCNC[C@H](O)c2ccccc2)cc1` had a melting point of 197 to 203 °C.

`Cl.Cl.O=C(Cc1nccn1-c1ccc2ccccc2c1)Nc1ccc(CCNC[C@H](O)c2ccccc2)cc1` came in with a melting point of 208 to 214 °C.

`Cc1cnc(CC(=O)Nc2ccc(CCNC[C@H](O)c3ccccc3)cc2)n1Cc1ccc(F)cc1.Cl.Cl`: the melting point was in the range of 219 to 223 °C.

The molecule `Cc1cn(Cc2ccc(F)cc2)c(CC(=O)Nc2ccc(CCNC[C@H](O)c3ccccc3)cc2)n1.Cl.Cl` showed a melting point of 204 to 207 °C.

For the molecule `Cl.O=C(Cc1nnnn1Cc1ccc(F)cc1)Nc1ccc(CCNC[C@H](O)c2ccccc2)cc1`, the melting point fell in the range of 225 to 228 °C.

`Cl.O=C(CC1=NNN(Cc2ccc(Cl)c(Cl)c2)N1)Nc1ccc(CCNC[C@H](O)c2ccccc2)cc1`: the melting point fell in the range of 232 to 235 °C.

Take `Cl.O=C(CC1=NNN(Cc2ccc(F)cc2)N1)Nc1ccc(CCNC[C@H](O)c2ccccc2)cc1`: the melting point lay within 233 to 235 °C.

In turn, `Cl.Cl.O=C(Cc1nc[nH]n1)Nc1ccc(CCNC[C@H](O)c2ccccc2)cc1` registered a melting point of 221 to 224 °C.

For the molecule `Cl.Cl.O=C(Cc1n[nH]c(SCc2ccccc2)n1)Nc1ccc(CCNC[C@H](O)c2ccccc2)cc1`, the melting point was 222 to 224 °C.

In the case of `CC(=O)Nc1nc(CC(=O)Nc2ccc(CCNC[C@H](O)c3ccccc3)cc2)cs1.Cl`, the melting point was in the range of 242 to 245 °C.

In the case of `CS(=O)(=O)Nc1nc(CC(=O)Nc2ccc(CCNC[C@H](O)c3ccccc3)cc2)cs1.Cl`, the melting point lay in the range of 252 to 256 °C.

As for `Cl.Cl.N=C(N)Nc1nc(CC(=O)Nc2ccc(CCNC[C@H](O)c3ccccc3)cc2)cs1`, the melting point is > 230 °C (dec.).

Take `Cl.O=C(Cc1nccn1Cc1ccc([N+](=O)[O-])cc1)Nc1ccc(CCNC[C@H](O)c2ccccc2)cc1`: the melting point is 237 to 243 °C.

Regarding `Cl.Cl.O=C(Cc1nc2ccccc2s1)Nc1ccc(CCNC[C@H](O)c2ccccc2)cc1`, the melting point was 228 to 233 °C (dec.).

`Cl.Cl.O=C(Cc1csc2nccn12)Nc1ccc(CCNC[C@H](O)c2ccccc2)cc1` had a melting point of 161 to 162 °C.

As to `Cl.Cl.O=C(Cc1nccn1Cc1c(F)ccc(F)c1F)Nc1ccc(CCNC[C@H](O)c2ccccc2)cc1`, the melting point was in the range of 213 to 217 °C.

Molecule `Cl.Cl.O=C(Cc1nccn1Cc1cc(F)c(F)c(F)c1)Nc1ccc(CCNC[C@H](O)c2ccccc2)cc1` showed a melting point of 209 to 213 °C.

Turning to `Cl.Cl.O=C(Cc1nccn1Cc1c(F)c(F)c(F)c(F)c1F)Nc1ccc(CCNC[C@H](O)c2ccccc2)cc1`, the melting point fell in the range of 190 to 193 °C.

`Cl.Cl.O=C(Cc1nccn1Cc1cccc(I)c1)Nc1ccc(CCNC[C@H](O)c2ccccc2)cc1` came in with a melting point of 233 to 234 °C.

Molecule `Cl.Cl.Cl.O=C(Cc1nccn1-c1ccc2ccccc2n1)Nc1ccc(CCNC[C@H](O)c2ccccc2)cc1` registered a melting point of 162 to 165 °C.

As for `Cl.Cl.O=C(Cc1ncc[nH]1)Nc1ccc(CCNC[C@H](O)c2ccccc2)cc1`, the melting point fell in the range of 203 to 207 °C.

As for `Cl.O=C(Cn1cccn1)Nc1ccc(CCNC[C@H](O)c2ccccc2)cc1`, the melting point was 229 to 232 °C.

Turning to `Cl.Cl.O=C(Cn1cncn1)Nc1ccc(CCNC[C@H](O)c2ccccc2)cc1`, the melting point lay in the range of 237 to 240 °C.

As for `Cl.O=C(Cc1cccnc1)Nc1ccc(CCNC[C@H](O)c2ccccc2)cc1`, the melting point lay within 236 to 238 °C.

For `Cl.O=C(Cc1ccncc1)Nc1ccc(CCNC[C@H](O)c2ccccc2)cc1`, the melting point fell in the range of 195 to 198 °C.

With `Cl.O=C(CCc1ccccn1)Nc1ccc(CCNC[C@H](O)c2ccccc2)cc1`, the melting point lay in the range of 202 to 204 °C.

The molecule `Cl.O=C(Cc1nnn[nH]1)Nc1ccc(CCNC[C@H](O)c2ccccc2)cc1` had a melting point of 259 to 261 °C.

On to `Cc1cccnc1CC(=O)Nc1ccc(CCNC[C@H](O)c2ccccc2)cc1.Cl`, for which the melting point was in the range of 216 to 217 °C.

With `O=C(Nc1ccc(CCNCC(O)c2ccccc2)cc1)c1ccccn1` (stereo not drawn) (as salt: hydrochloride), the melting point lay in the range of 223 to 225 °C.

Regarding `O=C(Cc1nnnn1Cc1ccc(Cl)c(Cl)c1)Nc1ccc(CCNCC(O)c2ccccc2)cc1` (stereo not drawn) (as salt: hydrochloride), the melting point is 240 to 242 °C.

Regarding `Nc1cccc(CC(=O)Nc2ccc(CCNCC(O)c3ccccc3)cc2)n1` (stereo not drawn) (as salt: hydrochloride), the melting point was in the range of 150 to 152 °C.

`O=C(Cc1ccccn1)Nc1ccc(CCNCC(O)c2ccccc2)cc1` (stereo not drawn) (as salt: hydrochloride) displayed a melting point of 223 to 224 °C.

Consider `O=C(Cc1cnccn1)Nc1ccc(CCNCC(O)c2ccccc2)cc1` (stereo not drawn) (as salt: hydrochloride), for which the melting point was 236 to 238 °C.

`O=C(Cc1nccn1Cc1ccc(Cl)cc1)Nc1ccc(CCNC[C@H](O)c2ccccc2)cc1` (as salt: hydrochloride) [Example 23, (R)-2-[1-(4-Chlorobenzyl)-1H-imidazol-2-yl]-4′-[2-[(2-hydroxy-2-phenylethyl)amino]ethyl]acetanilide dihydrochloride] showed a melting point of 203 to 209 °C.

In turn, `O=C(Cc1ncccn1)Nc1ccc(CCNC[C@H](O)c2ccccc2)cc1` (as salt: hydrochloride) [Example 104, (R)-4′-[2-[(2-hydroxy-2-phenylethyl)amino]ethyl]-2-(2-pyrimidinyl]acetanilide hydrochloride] returned a melting point of 208 to 210 °C.

On to `Cl.O=C(Cc1cccc(OCc2ccccc2)n1)Nc1ccc(CCNC[C@H](O)c2ccccc2)cc1` [16], for which the melting point is 237 to 238 °C.

Turning to `Cl.O=C(Cc1cccc(OCc2ccccc2)n1)Nc1ccc(CCNC[C@H](O)c2ccccc2)cc1` [60], the melting point was in the range of 214 to 216 °C.

`O=C(Cc1nc2ccccc2[nH]1)Nc1ccc(CCNC[C@H](O)c2ccccc2)cc1` [Example 91, (R)-2-(1H-benzimidazol-2-yl)-4′-[2-[(2-hydroxy-2-phenylethyl)amino]-ethyl]acetanilide] returned a melting point of 158 to 165 °C.
